The values below come from patent publication US12310967B2, “Compositions and methods of treatment for neurological disorders comprising motor neuron diseases” (Gliapharm SA, priority 2017, dated 2025).

The conditions of test [1]: ALS patients; cited from earlier work.
Test [2] deals with primary astrocytes. The experiment in a line: Intracellular glycogen quantification. It is filed as cell-based, mouse. To be noted: 10 μM, 3 h. The procedure: For glycogen dosage, a protein dosage was first performed in order to assess whether harvested astrocytes from primary cell cultures yielded enough and equivalent amounts of proteins comparing each replicate, and to ensure that the obtained differences in glycogen quantities were due to drug action and not to inner protein quantities.
Astrocytes used for these dosages were previously grown in 6-well plates for 17 days and stimulated with Vehicle (DMSO) or drug of interest (1 μM to 100 μM) for 180 min, at 37° C. 5% CO2/95% air in D5030 complete medium. Medium was removed and replaced with 600 μl of 30 mM Tris HCl, and stored at −20° C.
Proteins were dosed using the micro BCA Protein Assay kit (Thermo Scientific), as described in the manufacturer's instructions. Briefly, thawed cells were sonicated and 5 μl aliquots were placed in a transparent 96-well plate, to which we added 25 μl 30 mM Tris HCl, 70 μl H2O and 100 μl of a BCA mix (made as described in manufacturer's guidelines). After a 120 min-incubation at 37° C., absorbance was measured with Safire 2 spectrophotometer at a wavelength of 562 nm, and protein quantities were determined from a standard curve of Bovine Serum Albumin (BSA).
Glycogen was quantified using a 250 μl-aliquot of the same stimulated, thawed, and sonicated cells. After an incubation period of 30 min at 90° C. and 400 rpm, 28 μl of an acetic acid/sodium acetate (both from Sigma) 0.1M pH 4.6 buffer was added to each aliquot, which was then separated in two. Each split aliquot received whether 5 μl of amyloglucosidase (Roche) or 5 μl H2O, and all cell solutions were incubated for 120 min in a shaking 37° C.-waterbath. After a centrifugation at 16'000G for 5 min, 20 μl of supernatant were placed 96-well plate, to which 150 μl of a mix containing 0.67 mM ATP (Roche), 0.67 mM NADP (Roche), 1.8% hexokinase/glucose-6-phosphate dehydrogenase (Roche) and 0.1M Tris Buffer-HCl/3.3 mM magnesium (Fluka)/pH 8.1 buffer was added. Fluorescence was measured with Safire 2 spectrophotometer (340 nm excitation/440 nm emission). Glycogen concentration was obtained by substracting glucose value of samples with amyloglucosidase to samples without amyloglucosidase, and were expressed relative to the amount of proteins previously determined.
Levels of intracellular glycogen in astrocytes were measured at 3 h after stimulation with 20 Hits from the Prestwick library (10 μM each), as shown in FIG. 2. n=6-10; Ctrl pos. is glutamate (0.5 mM). Statistical analysis consisted in ANOVA followed by Fisher LSD post-hoc test for pair-wise comparisons.
Statistical analysis consisted in ANOVA followed by Fisher LSD post-hoc test for pair-wise comparisons.

Test [3] concerns primary astrocytes. Kind of test: High throughput screening (HTS) for lactate secretion: acidification of extracellular medium (SNARF5). It is filed as cell-based, mouse. The arrangement: key to Score / HTS Score (SNARF5) / Score_SNARF: fraction of plate positive-control activity (1 = 100%). To be noted: for Score_SNARF: Appendix I, primary screening confirmation (SNARF5). The procedure: Primary cultures of cerebrocortical astrocytes were obtained from 1-2-day-old OF1 mouse pups (Charles River Laboratories). Briefly, cortices were isolated and minced in small pieces under a dissecting microscope. The cells were incubated for 30 min at 37° C. in a solution containing 20 U/ml of papain enzyme (Worthington Biochemical), L-cysteine 1 mM (Sigma), and 10 kU/ml DNase I (Worthington Biochemical) for an enzymatic dissociation. Papain activity was stopped by the addition of fetal calf serum (FCS) to the solution, and a single-cell suspension was then obtained by mechanical dissociation, which consisted in cells trituration in a DMEM (D7777, Sigma-Aldrich) medium (supplemented with 44 mm NaHCO3, and 10 ml/L antibiotic/antimycotic solution) containing 10% FCS. The cells were seeded at an average density of 6×10^4 cells/cm^2 in poly-D-lysine-coated 96, 12 or 6-well culture plates, depending on their use, and incubated at 37° C. in a humidified atmosphere containing 5% CO2/95% air. Culture medium was renewed twice per week. Cells were stimulated and harvested between DIV14 and DIV17, when confluence and cell growth were optimal.
Secretion of lactate in a high-throughput screening (HTS) fashion was measured indirectly through the acidification of extracellular medium. To this end, primary astrocytes grown in 96-well plates for 17 days were stimulated with the compounds as listed herein.
After washing the cells twice with stimulation medium (DMEM (D5030, Sigma), 3 mM NaHCO3 and 5 mM Glucose) at 37° C., cells were stimulated with the compounds at a final concentration of 10 uM (1% DMSO final) in 50 ul per well of stimulation medium supplemented with 10 uM of the extracellular pH sensor SNARF-5F %-(AND-6)-CAR (Life Technologies Corporation). Each compound was tested in two different plates for duplicates.
After 90 min stimulation, fluorescence was read at exc. (excitation) 480 nm/emm. (emission) 580 nm and at exc 480 nm/emm. 630 nm. The ratio of fluorescence between 630 nm and 580 emission values, which represents extracellular pH, was calculated.
In each plate, 8 wells were used for negative controls (DMSO) and 8 wells were used for positive controls (CCCP 2 uM in DMSO). Z prime values were calculated for each of the plates tested and values<0 were discarded.
The average and SD of compounds' values tested in duplicates were calculated, and compound was noted as HIT when the difference between compound's average and negative control's average was greater than three times the sum of compound's SD and negative controls' SD. Only scores greater than 40% were considered as lead Hits for the CDC54K library; for the remaining libraries, all hits were considered. Scores are calculated as the % of activity compared to the positive control in each plate (which is 100%).
Primary screening hits were cherry picked on new plates and confirmed for SNARF5 effect, after having discarded those compounds that are fluorescent (exc. 480 nm/emm. 580 nm or 630 nm) before stimulation. Extracellular medium was next analyzed for extracellular lactate quantification for secondary screening.
Identification of lactate-enhancing drugs with high throughput screening (HTS) experiments on astrocytes primary cultures using extracellular pH dye (SNARF5F 5-(and-6)-carboxylic acid) for 90 min. The procedure is described in Material and Methods (2. Cell culture, 2.1. HTS for lactate secretion and 2.2. Extracellular lactate quantification).
The procedure was performed as follows: • Primary screening: acidification of the extracellular medium • Primary screening confirmation: acidification of the extracellular medium, removal of compounds with fluorescent activity at exc. 480 nm/emm. 580 nm or 630 n. • Secondary screening: dosage of extracellular lactate

For test [4], the system named is primary astrocytes. Kind of test: Extracellular lactate quantification. Type of test: cell-based, mouse. To be noted: for Score_LACTATE: Appendix I, secondary screening: extracellular lactate. The procedure, abridged:
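Astrocytes were stimulated 90 min at 37 °C in D5030 medium with 5 mM glucose and 44 mM bicarbonate, with compound at 0-100 μM. Extracellular lactate was measured enzymatically with LDH/NAD in glycine-semicarbazide buffer, pH 10, for 1 h at 37 °C. NADH fluorescence (340/450 nm) was converted to lactate using an L-lactate standard curve.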

Test [5] deals with primary astrocytes. The experiment in a line: Intracellular glycogen quantification, Example 2. Type of test: cell-based, mouse. Conditions: 10 μM, 3 h. The method, then: Astrocytes grown on 12-well plates were used for intracellular glycogen quantifications. Cells were stimulated with Vehicle (DMSO), with compounds of the invention (10 μM), or with a positive control for 180 min, at 37° C. 5% CO2/95% air in D5030 medium complemented with
5 mM D-glucose and 44 mM sodium bicarbonate (pH 7.2). […] At the end of the stimulation, medium was removed and replaced with 600 μl of 30 mM Tris HCl, and stored at −20° C.
First, the amount of proteins in each sample was quantified to assess whether harvested astrocytes from primary cell cultures yielded enough and equivalent amounts of proteins on each replicates. Proteins were quantified using the micro BCA Protein Assay kit (Thermo Scientific), according to manufacturer's instructions. Next, intracellular glycogen concentrations were quantified using a 250 μl-aliquot of the same stimulated, thawed, and sonicated cell lysate. After an incubation period of 30 min at 90° C. and 400 rpm, 28 μl of a 0.1M acetic acid/sodium acetate buffer (pH 4.6) was added to each lysate aliquots, which were then separated in two. Each split aliquots received either 5 μl of amyloglucosidase or H2O, and incubated for 120 min at 37° C. After centrifugation at 16'000G for 5 min, 20 μl of supernatant were placed in a 96-well plate, to which 150 μl of a mix containing 0.67 mM ATP, 0.67 mM NADP, 1.8% hexokinase/glucose-6-phosphate dehydrogenase in a 0.1M Tris Buffer-HCl/3.3 mM magnesium (pH 8.1) buffer was added. Fluorescence intensity (340 nm excitation/440 nm emission) was measured using a Safire 2 spectrophotometer. Glucose concentrations were assessed relative to a glucose standard curve, and glycogen concentrations were calculated by subtracting glucose values of samples that had received amyloglucosidase (i.e. that had degraded their glycogen stores) to samples that had not. Intracellular levels of glycogen, which is the main source of glucose storage in the brain, were analyzed in primary astrocytes after treatment with compounds of interest (10 μM, 3 h) (FIG. 5B), and compound GP-0157 (0.1, 1, 10 μM, 3 h) (FIG. 20).

The subject of test [6] is primary astrocytes. The experiment in a line: MTT viability assay. It is filed as cell-based. To be noted: Mus musculus, Astrocyte, 0-200 uM, 24 h. The procedure: For cell toxicity determination, astrocytes in 96-well plates were stimulated 24 h (37° C. 5% CO2/95% air) with a gradient ranging from 0.1 to 200 μM of tested compounds. After stimulation, 5 mg/ml thiazol blue tetrazolium bromide (MTT, Sigma-Aldrich) in warm D5030 complete medium was added to each well, and cells were incubated for 4 h at 37° C. (5% CO2). The medium was then removed by aspiration, and the reaction was stopped by the addition of 50 μl DMSO per well.
The amount of reduced MTT (formazan) solubilized in DMSO was then determined spectrophotometrically using absorbance at 570 nm (Safire 2; Tecan).
MTT cellular viability assay was performed on astrocytes exposed to Preswtick Hits (concentrations ranging from 0 uM to 200 uM).
MTT cellular viability assay was performed on astrocytes exposed to CDC54K Hits (concentrations ranging from 0 uM to 200 uM).
In general terms: Tetrazolium dyes change colour on reduction, which living cells bring about.

Where a name gives a salt, the structure may show the parent alone.

As for `CC1=NN(c2ccccc2)C(=O)C1` [Ederavone, edaravone], the “prolongation of patients' lifetime” value in test [1] is listed as “a few months only”.
Consider `O=C(COc1ccc(Cl)cc1)N1CCN(Cc2ccc3c(c2)OCO3)CC1` [Fipexide hydrochloride], for which the “Glycogen (statistical significance of glycogen degradation)” value in test [2] (Prestwick hits) is given as “ns”.
As to `COc1ccccc1[N+]1=C2CCCCCN2C(O)(c2ccc(C)cc2)C1` (stereo not drawn) [K404-0834], the Score_SNARF in test [3] is 1.022. Besides, the Score_LACTATE in test [4] came out at 1.613. Also, the “mobilization of intracellular glycogen” value in test [5] is reported as “significantly enhance”.
The compound `COc1ccccc1NC(=O)Cc1nn(C)c(=O)c2ccccc12` [K851-0113] came in with a Score_SNARF in test [3] of 0.7569. The compound also returned a Score_LACTATE in test [4] of 0.9281. Also, in test [2] (CDC54K hits), the “Glycogen (statistical significance of glycogen degradation)” value is recorded as “ns”. The IC50 (usually the concentration that inhibits the measured activity by half) in test [6] (CDC54K hits) was over 200 µM.
As to `Nc1nc2ccc(OC(F)(F)F)cc2s1` [Riluzole], in test [1], the “prolongation of patients' lifetime” value is “a few months only”.
In the case of `Fc1ccc(-c2cc3n(n2)CCCN(Cc2ccncc2)C3)cc1` [T202-1455], in test [3], the Score_SNARF came out at 0.7839. In test [4], this compound gave a Score_LACTATE of 0.6933. The “Glycogen (statistical significance of glycogen degradation)” value in test [2] (CDC54K hits) is “ns”. The 50% inhibitory concentration (IC50) in test [6] (CDC54K hits) was over 200 µM.
`COc1ccc(Nc2nc(N3CCOCC3)c3ccccc3n2)cc1` [T0508-5190] gave a Score_SNARF in test [3] of 0.4029. Further, the Score_LACTATE in test [4] was 0.2892. In test [5], the “mobilization of intracellular glycogen” value was “significantly enhance”.
Consider `CC(=O)c1cccc(NC(=O)C(C)Sc2ncnc3ccccc23)c1` (stereo not drawn) [T0511-9200], for which the Score_SNARF in test [3] is 0.4866. The compound further returned a Score_LACTATE in test [4] of 0.7518. In test [2] (CDC54K hits), the “Glycogen (statistical significance of glycogen degradation)” value is listed as “ns”. Further, in test [6] (CDC54K hits), the IC50 is over 200 µM.
For `O=S(=O)(Nc1cc(F)cc(F)c1)c1ccc2ccccc2c1` [T5884038], the Score_SNARF in test [3] is given as 0.8379. Further, the Score_LACTATE in test [4] is reported as 0.9262. Also, the “mobilization of intracellular glycogen” value in test [5] was “significantly enhance”.
In the case of `COc1cccc(CNS(=O)(=O)c2ccc3c(c2)CCCN3C(C)=O)c1` [T5967389], the Score_SNARF in test [3] is on record as 0.2789. Further, the Score_LACTATE in test [4] came to 0.4517. In addition, the “Score Lact.” value in test [4] (Appendix II, CDC54K library) is 0.45. Besides, the IC50 in test [6] (CDC54K hits) was over 200 µM.
In test [3] (Prestwick library, 10 uM, 90 min, activity relative to positive control CCCP 2 uM), `C#C[C@]1(O)CC[C@H]2[C@@H]3[C@H](C)CC4=C(CCC(=O)C4)[C@H]3CC[C@@]21C` [Tibolone] had a Score of 0.2268. Also, the “HTS Score (lactate)” value in test [3] (Prestwick library, 10 uM, 90 min, relative to positive control CCCP 2 uM) worked out at 0.227. Also, the EC50 (usually the concentration at which the effect is half-maximal) in test [4] (Mus musculus, Astrocyte, 1.5 h, Prestwick hits, 0-100 μM, 90 min, read-out: Lactate EC50) was found to be 2.23 µM. Also, the concentration for half-maximal inhibition (IC50) in test [6] (Prestwick hits) was 60.7 µM.
On to `O=c1n(CCCN2CCN(c3cccc(Cl)c3)CC2)nc2ccccn12` [Trazodone hydrochloride], for which the “Glycogen (statistical significance of glycogen degradation)” value in test [2] (Prestwick hits) is “ns”.
